In assay [1] the target is T1, TbPTR1 (Trypanosoma brucei brucei, UniProt O76290).
T1 sequence (O76290 1-268): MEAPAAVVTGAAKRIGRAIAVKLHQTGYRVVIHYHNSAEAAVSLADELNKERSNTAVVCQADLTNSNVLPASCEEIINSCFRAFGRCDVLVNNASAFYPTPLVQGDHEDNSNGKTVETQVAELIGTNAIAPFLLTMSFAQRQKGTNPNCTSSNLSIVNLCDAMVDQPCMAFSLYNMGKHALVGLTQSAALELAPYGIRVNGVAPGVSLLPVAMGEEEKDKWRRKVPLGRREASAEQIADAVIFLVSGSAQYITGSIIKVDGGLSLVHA
In words: TbPTR1 indirect (cytochrome c-coupled) enzyme assay. To be noted: for IC50: indirect assay, triplicate, SD within ± 10% of the value. The assay is classed as biochemical. On the procedure:
The in vitro assays used in the current study were based on those reported in the literature. As PTR1 enzymes use dihydrobiopterin (H2B) as a substrate and also require NADPH for the reaction, the reduction of H2B to tetrahydrobiopterin by PTR1 is nonenzymatically linked with the reduction of cytochrome c in this assay, which is detected at 550 nm. The formation of cyt c Fe^2+ results in an increase in the photometric readout. TbPTR1 and LmPTR1 activity was assayed in a buffer containing 20 mM sodium citrate (pH 6.0). The final reaction mixture contained the test compound at a range of concentrations and TbPTR1/LmPTR1 (6.0 nM/12 nM), H2B (0.3 μM/3 μM), cytochrome c (100 μM/100 μM), and NADPH (500 μM/500 μM). The final assay volume was 50 μL in 384-well clear plates (Greiner Bio-One, 781101). Compound screening was performed by the addition of the compound to the assay plates (in 100% DMSO), followed by the addition of 45 μL Reaction Mix (enzyme, H2B cytochrome c in 20 mM sodium citrate buffer). A pre-read was made at 550 nm using an EnVision Multilabel Reader 2103 (PerkinElmer Inc., US), followed by incubation of the assay plates at 30 °C for 10 min. The reaction was initiated by the addition of 5 μL of NADPH (5 mM in ultrapure water) followed by kinetically reading the assay plates at 550 nm using the EnVision Multilabel Reader at 10, 20, 30, 40, and 50 min. The slope of each assay well was calculated. The screening data were analyzed using ActivityBase (IDBS), and for outlier elimination in the control wells, the 3-σ method was applied. Based on the slope, the data were normalized to the positive control methotrexate for TbPTR1/LmPTR1 (1 μM/50 μM, yielding 100% inhibition) and negative controls (1% DMSO, yielding 0% inhibition), and % inhibition was calculated for all samples. The measurement at time 0 min was used to flag optically interfering samples. Each compound was tested in triplicate, and the pIC50 value, standard deviation, Hill slope, and minimum and maximum signals for each dose–response curve were obtained using a 4-parameter logistic fit in the XE module of Activity Base (IDBS), as also reported previously. ,

Assay [2] deals with THP-1-derived macrophages. The assay is described as follows: Cytotoxicity assay (MTT) on THP-1-derived macrophages. It counts as cell-based, Human. The settings on record: THP-1 CC50 vs T. brucei EC50.

This is an account of results in article PMC12516686, “Design of 2‑Aminobenzothiazole Derivatives Targeting Trypanosomatid PTR1 by a Multidisciplinary Fragment Hybridization Approach” (Journal of Medicinal Chemistry, 2025).

Broadly, the IC50 is the point on the concentration scale where inhibition reaches its midpoint. Read a high IC50 as weaker potency in that assay. As usually defined, the inhibition is the drop in the measured response relative to a control, in per cent. Lower therefore signals little suppression.

Turning to `Nc1nc2ccc(C(=O)NCCc3ccc(Cl)c(Cl)c3)cc2s1` [Compound 1a, 2-amino-N-(3,4-dichlorophenethyl)benzo[d]thiazole-6-carboxamide], the IC50 in assay [1] turned out to be 7.6 µM. The “Selectivity index toward THP-1 cells” value in assay [2] was “over 16”.

Regarding `Nc1nc2ccc(C(=O)N(CCc3ccc(Cl)c(Cl)c3)C3CC3)cc2s1` [Compound 1b, 2-amino-N-cyclopropyl-N-(3,4-dichlorophenethyl)benzo[d]thiazole-6-carboxamide], the IC50 in assay [1] turned out to be 17.1 µM. Also, the “Selectivity index toward THP-1 cells” value in assay [2] was 5−10.

`Nc1nc2ccc(C(=O)N(Cc3ccc(Cl)c(Cl)c3)C3CC3)cc2s1` [Compound 1c, 2-amino-N-cyclopropyl-N-(3,4-dichlorobenzyl)benzo[d]thiazole-6-carboxamide] yielded an IC50 in assay [1] of 71.6 µM.

The compound `Nc1nc2ccc(CN(Cc3ccc(Cl)c(Cl)c3)C3CC3)cc2s1` [Compound 1d, 6-((cyclopropyl(3,4-dichlorobenzyl)amino)methyl)benzo[_d_]thiazol-2-amine] had a half-maximal inhibitory concentration (IC50) in assay [1] of 3.3 µM.

In assay [1] (at 50 μM), `Nc1nc2ccc(C(=O)N(CCc3ccc(Cl)c(Cl)c3)c3ccccc3)cc2s1` [Compound 1e, 2-amino-N-(3,4-dichlorophenethyl)-N-phenylbenzo[d]thiazole-6-carboxamide] yielded an inhibition at 50 µM of 18 ± 1%.

Consider `Nc1nc2ccc(C(=O)NCCc3ccccc3)cc2s1` [Compound 2a, 2-amino-N-phenethylbenzo[d]thiazole-6-carboxamide], for which, in assay [1], the half-maximal inhibitory concentration (IC50) came out at 14.5 µM.

`Nc1nc2ccc(C(=O)NCCc3cccc(Cl)c3)cc2s1` [Compound 2b, 2-amino-N-(3-chlorophenethyl)benzo[d]thiazole-6-carboxamide] had an IC50 in assay [1] of 3.9 µM.

Consider `Nc1nc2ccc(C(=O)NCCc3ccc(Cl)cc3)cc2s1` [Compound 2c, 2-amino-N-(4-chlorophenethyl)benzo[d]thiazole-6-carboxamide], for which the IC50 in assay [1] stood at 4.8 µM.

Turning to `Nc1nc2ccc(C(=O)NCCc3cccc(Br)c3)cc2s1` [Compound 2d, 2-amino-N-(3-bromophenethyl)benzo[d]thiazole-6-carboxamide], the half-maximal inhibitory concentration (IC50) in assay [1] came to 2.4 µM.

In assay [1], `Nc1nc2ccc(C(=O)NCCc3ccc(Br)cc3)cc2s1` [Compound 2e, 2-amino-N-(4-bromophenethyl)benzo[d]thiazole-6-carboxamide] showed a concentration for half-maximal inhibition (IC50) of 2.9 µM.

In assay [1], `Nc1nc2ccccc2n1Cc1ccc(Cl)c(Cl)c1` [I, 1-(3,4-dichlorobenzyl)-1H-benzimidazol-2-amine, reference compound] displayed a concentration for half-maximal inhibition (IC50) of 0.39 µM. Compared with the last compound, the IC50 is about 7.4-fold lower.
